Values after ≈ are worked out from the molar mass of the structure shown. Counter-ions that a name gives are not always drawn. Like-named read-outs stand apart in the source and are kept apart here.
Columns and labels:
Assay type in all cases: cell-based
[1] = test system: chronically HIV-1 infected promonocytic cell line, U1; experiment: Virus expression in chronically HIV-1 infected promonocytic U1 cells (p24 ELISA)
Procedure: Therefore, compounds 4 and 5 were separately added for 72 hours to the chronically HIV-1 infected T cell line, ACH-2, and to the chronically HIV-1 infected promonocytic cell line, U1.
HIV-1 chronically infected T cell line, ACH-2, ^15 and HIV-1 chronically infected promonocytic cell line, U1 ^16 were continuously maintained in RPMI1640 with 10% fetal calf serum (FCS). For experiments, the cell lines were only used in log-phase of growth. Cells (1×10^6 cells/well) and either various concentrations of 4,5, AZT or media alone were added to 24-well plates in the presence or absence of PMA (10^-8 M). After 72 hours at 37° C. and 5% CO2, an aliquot of the cell-free supernatants was collected and analyzed for p24 antigen by ELISA.

H9 T cell line = experiment: Toxicity to uninfected H9 cells (cell count)
Procedure: (§1) The H9 T cell line was maintained in continuous culture with complete medium (RPMI and 10% fetal calf serum) at 5% CO2 and 37° C. and was used in experiments only when in log phase of growth. The cells were incubated with HIV-1 (IIIB isolate, TCID50 10^4 IU/mL, at a multiplicity of infection of 0.1-0.01 IU/cell) for 1 hour at 37° C. and 5% CO2. The cells then were washed thoroughly to remove unabsorbed virions and resuspended at 4×10^5 cells/mL in complete medium. Aliquots (1 mL) were placed in wells of 24-well culture plates containing an equal volume of test compound (diluted in the culture medium). After a four day incubation at 37° C., cell density of uninfected cultures was determined by counting cells in a Coulter counter to assess toxicity of the test compound. A p24 antigen ELISA assay was used to determine the level of virus released in the medium of the HIV-infected cultures. The p24 antigen assay uses an HIV-1 anti-p24 specific monoclonal antibody as the capture antibody coated on 96 well plates. Following a sample incubation period, rabbit serum containing antibodies for HIV-1 p24 is used to tag any p24 "captured" onto the microtiter well surface. […] The cut-off for the p24 ELISA assay is 12.5 pg/mL. P24 in the culture medium was quantitated against a standard curve containing known amounts of p24. The effective (EC50) and inhibitory concentrations (for anti-HIV activity and cytotoxicity, respectively) were determined.

HIV-1 (IIIB isolate) = experiment: microbe, parasite or virus in culture; conditions: for Therapeutic Index: 5760 min; for EC50: acutely infected H9 lymphocytes; for anti-HIV activity: result in words
Procedure: as §1

[2] = Table I, cytotoxicity, uninfected H9 cells
[3] = Homo sapiens, H9, Table I, cytotoxicity, uninfected H9 cells, read-out: IC50
[4] = Human immunodeficiency virus 1, IIIB, Lymphocyte, Table I, read-out: EC50
[5] = T-cell, Table IA, concentration that causes a 50% reduction in total cell number, read-out: IC50
[6] = Human immunodeficiency virus 1, IIIB, Lymphocyte, Table IA, read-out: EC50

Row | Structure (SMILES) | EC50 (HIV-1 (IIIB isolate); [4]) [µg/mL] | Therapeutic Index (HIV-1 (IIIB isolate); Table I, IC50/EC50) | anti-HIV activity (HIV-1 (IIIB isolate)) | IC50 (H9 T cell line; [3]) [µg/mL] | IC50 (H9 T cell line; [5]) [µg/mL] | other results
1 | Cc1cn([C@H]2C[C@H](N=[N+]=[N-])[C@@H](CO)O2)c(=O)[nH]c1=O [AZT, azidothymidine, reference compound] | – | – | – | – | – | p24 ([1]; +Media, 0.1 μg/mL): 18 pg/mL; p24 ([1]; +Media, 1 μg/mL): 12 pg/mL; p24 ([1]; +Media, 10 μg/mL): 13 pg/mL; p24 ([1]; +Media, 100 μg/mL): 22 pg/mL; p24 ([1]; +PMA, 0.1 μg/mL): 8,070 pg/mL; p24 ([1]; +PMA, 1 μg/mL): 8,218 pg/mL; p24 ([1]; +PMA, 10 μg/mL): 9,299 pg/mL; p24 ([1]; +PMA, 100 μg/mL): 9,338 pg/mL
2 | COc1c(Br)c(C(=O)O)c(-c2c3c(c(OC)c(Br)c2C(=O)O)OCO3)c2c1OCO2 [Compound 6, 3,3'-Dibromo-4,4'-dimethoxy-5,6,5'6'-bimethylenedioxy-2,2'-dicarboxy biphenyl] | – | 1 | decrease in the anti-HIV activity | – | – | IC50 (H9 T cell line; [2]): > 100 µg/mL; EC50 (HIV-1 (IIIB isolate); Table I): > 100 µg/mL
3 | COc1c(Br)c(C(=O)O)c(-c2c3c(c(OC)c(Br)c2C(=O)O)OCO3)c2c1OCO2 [Compound 7, 3,3'-Dibromo-4,4'-dimethoxy-5,6,5'6'-bimethylenedioxy-2,2'-dicarboxy biphenyl disodium salt] | – | – | decrease in the anti-HIV activity | – | – | IC50 (H9 T cell line; Table I, cytotoxicity, uninfected H9 cells, disodium salt): > 100 µg/mL; Therapeutic Index (HIV-1 (IIIB isolate); Table I, IC50/EC50, disodium salt): 1; EC50 (HIV-1 (IIIB isolate); Table I, disodium salt): > 100 µg/mL
4 | COc1c2c(c3c(c1Br)c(=O)oc(=O)c1c(Br)c(OC)c4c(c13)OCO4)OCO2 [Compound 8, 3,3'-Dibromo-4,4'-dimethoxy-5,6,5'6'-bimethylenedioxy biphenyl 2,2'-dicarboxylic anhydride] | – | – | – | > 100 | – | –
5 | CCOC(=O)c1c(Br)c(OC)c2c(c1-c1c3c(c(OC)c(Br)c1C(=O)O)OCO3)OCO2 [Compound 10, 3,3'-Dibromo-4,4'-dimethoxy-5,6,5'6'-bimethylenedioxy-2-ethoxycarbonyl-2'-carboxy biphenyl monosodium salt] | – | – | – | – | – | IC50 (H9 T cell line; [2]): > 100 µg/mL
6 | COc1c(Br)c(C(=O)O)c(-c2c3c(c(OC)c(Br)c2C(=O)O)OCO3)c2c1OCO2 [Compound 14, 3,3'-Dibromo-4,4'-dimethoxy-5,6,5',6'-bimethylenedioxy-2,2'-dicarboxy biphenyl di-1-(2-hydroxyethyl)pyrrolidinium salts] | – | – | – | – | – | EC50 (HIV-1 (IIIB isolate); Table I): 17 µg/mL
7 | COC(=O)c1cc(OCc2ccccc2)c(OCc2ccccc2)c(OC)c1-c1c(OC)c(OCc2ccccc2)c(OCc2ccccc2)c(Br)c1C(=O)OC [Compound 16, 2,2'-Dimethoxycarbonyl-3-bromo-4,4',5,5'-tetrakis(benxyloxy)-6,6'-dimethoxybiphenyl] | > 100 | 1 | no anti-HIV activity | > 100 | – | –
8 | COC(=O)c1c(Br)c(OCc2ccccc2)c(OCc2ccccc2)c(OC)c1-c1c(OC)c(OCc2ccccc2)c(OCc2ccccc2)c(Br)c1C(=O)OC [Compound 17, 2,2'-Dimethoxycarbonyl-3,3'-dibromo-4,4'5,5'-tetrakis(benzyloxy)-6,6'-dimethoxy biphenyl] | > 100 | 1 | no anti-HIV activity | > 100 | – | –
9 | COc1c(OCc2ccccc2)c(OCc2ccccc2)cc(CO)c1-c1c(CO)c(Br)c(OCc2ccccc2)c(OCc2ccccc2)c1OC [Compound 18, 2,2'-Dihydroxymethyl-3-bromo-4,4'5,5'-tetrakis(benzyloxy)-6,6'-dimethoxy biphenyl] | 100 (≈ 129 µM) | > 1 | no anti-HIV activity | > 100 | – | –
10 | COc1c(OCc2ccccc2)c(OCc2ccccc2)c(Br)c(CO)c1-c1c(CO)c(Br)c(OCc2ccccc2)c(OCc2ccccc2)c1OC [Compound 19, 2,2'-Dihydroxymethyl-3,3'-dibromo-4,4'5,5'-tetrakis(benzyloxy)-6,6'-dimethoxy diphenyl] | > 100 | 1 | no anti-HIV activity | > 100 | – | –
11 | COC(=O)c1c2c(c(OC)c(Br)c1-c1c(Br)c(OC)c3c(c1C(=O)OC)OCO3)OCO2 [Compound 110, 6,6'-Dibromo-5,5'-dimethoxy-3,4,3'4'-bimethylenedioxy-2,2'-dimethoxycarbonyl biphenyl] | – | – | – | – | 45 (≈ 78.1 µM) | EC50 (HIV-1 (IIIB isolate); Table IA): no inhibition
12 | COC(=O)c1cc2c(c(OC)c1-c1c(C(=O)OC)cc3c(c1OC)OCO3)OCO2 [Compound 114, 6,6'-dimethoxy-4,5,4'5'-bimethylenedioxy-2,2'-dimethoxycarbonyl biphenyl] | – | – | – | – | > 100 | EC50 (HIV-1 (IIIB isolate); [6]): 65 µg/mL (≈ 155 µM); Therapeutic Index (HIV-1 (IIIB isolate); Table IA, ratio IC50/EC50): > 1.2
13 | COC(=O)c1cc2c(c(OC)c1-c1c(C(=O)OC)cc(OC)c3c1OCO3)OCO2 [Compound 115, 4,6'-dimethoxy-5,6,4'5'-binethylenedioxy,2,2'-dimethoxycarbonyl biphenyl] | – | – | – | – | > 100 | EC50 (HIV-1 (IIIB isolate); [6]): 7.5 µg/mL (≈ 17.9 µM); Therapeutic Index (HIV-1 (IIIB isolate); Table IA, ratio IC50/EC50): > 13
14 | COC(=O)c1c(-c2cc(OC)c3c(c2C(=O)OC)OCO3)cc(OC)c2c1OCO2 [Compound 116, 5,5'-Dimethoxy-3,4,3 '4'-bismethylenedioxy-2,2'-dimethoxycarbonyl biphenyl] | – | – | – | – | > 100 | EC50 (HIV-1 (IIIB isolate); [6]): 70 µg/mL (≈ 167 µM); Therapeutic Index (HIV-1 (IIIB isolate); Table IA, ratio IC50/EC50): > 1.4
15 | COC(=O)c1cc(-c2cc(C(=O)OC)c3c(c2OC)OCO3)c(OC)c2c1OCO2 [Compound 117, 2,2'-Dimethoxy-3,4,3'4'-bismethylenedioxy-5,5'-dimethoxycarbonyl biphenyl] | – | – | – | – | 1.8 (≈ 4.3 µM) | EC50 (HIV-1 (IIIB isolate); Table IA): no inhibition
16 | COC(=O)c1c(Br)c2c(c(OC)c1-c1c(OC)c3c(c(Br)c1C(=O)OC)OCO3)OCO2 [Compound 118, 3,3'-Dibromo-6,6'-dimethoxy-4,5,4,5'-bimethylenedioxy-2,2'-dimethoxycarbonyl biphenyl] | – | – | – | – | > 100 | EC50 (HIV-1 (IIIB isolate); [6]): 90 µg/mL (≈ 156 µM); Therapeutic Index (HIV-1 (IIIB isolate); Table IA, ratio IC50/EC50): > 1.1
17 | COC(=O)c1c(Br)c2c(c(OC)c1-c1c3c(c(OC)c(Br)c1C(=O)OC)OCO3)OCO2 [Compound 119, 3,3'-Dibromo-4,6'-dimethoxy-5,6,4'5'-bimethylenedioxy-2,2'-dimethoxycarbonyl biphenyl] | – | – | – | – | > 100 | EC50 (HIV-1 (IIIB isolate); [6]): 2.1 µg/mL (≈ 3.64 µM); Therapeutic Index (HIV-1 (IIIB isolate); Table IA, ratio IC50/EC50): > 48

The next lines start with results.

Row | EC50 (HIV-1 (IIIB isolate); [4]) [µg/mL] | Structure (SMILES) | Therapeutic Index (HIV-1 (IIIB isolate); Table I, IC50/EC50) | anti-HIV activity (HIV-1 (IIIB isolate)) | IC50 (H9 T cell line; [3]) [µg/mL] | IC50 (H9 T cell line; [5]) [µg/mL] | other results
18 | 60 (≈ 104 µM) | CCOC(=O)c1c(Br)c(OC)c2c(c1-c1c3c(c(OC)c(Br)c1C(=O)O)OCO3)OCO2 [Compound 9, 3,3'-Dibromo-4,4'-dimethoxy-5,6,5'6'-bimethylenedioxy-2-ethoxycarbonyl-2'-carboxy biphenyl] | > 1.7 | decrease in the anti-HIV activity | > 100 | – | –
19 | > 100 | COc1c(Br)c(C(=O)O)c(-c2c3c(c(OC)c(Br)c2C(=O)OCC[N+](C)(C)C)OCO3)c2c1OCO2 [Compound 11, 3,3'-Dibromo-4,4'-dimethoxy-5,6,5'6'-bimethylenedioxy-2-carboxy-2'-(β-N,N,N-trimethylamino)ethoxycarbonyl biphenyl chloride] | 1 | decrease in the anti-HIV activity | > 100 | – | –
20 | 30 (≈ 45.5 µM) | COc1c(Br)c(C(=O)O)c(-c2c3c(c(OC)c(Br)c2C(=O)NCCN2CCNCC2)OCO3)c2c1OCO2 [Compound 12, 3,3'-Dibromo-4,4'-dimethoxy-5,6,5'6'-bimethylenedioxy-2-carboxy-2'-(β-N-piperazine)ethylcarbonyl biphenyl] | > 3.3 | decrease in the anti-HIV activity | > 100 | – | –
21 | > 100 | COc1c(Br)c(C(=O)O)c(-c2c3c(c(OC)c(Br)c2C(=O)NCCN2CCCC2)OCO3)c2c1OCO2 [Compound 13, 3,3'-Dibromo-4,4'-dimethoxy-5,6,5'6'-bimethylenedioxy-2-carboxy-2'-(β-N-pyrrolidinyl)ethylcarbonyl biphenyl hydrobromide] | 1 | decrease in the anti-HIV activity | > 100 | – | –
22 | 2 (≈ 2.79 µM) | CCCCCCOC(=O)c1c(Br)c(OC)c2c(c1-c1c3c(c(OC)c(Br)c1C(=O)OCCCCCC)OCO3)OCO2 [Compound 15, 3,3'-Dibromo-4,4'-dimethoxy-5,6,5'6'-bimethylenedioxy-2,2'-dihexanoxycarbonyl biphenyl] | > 50 | – | > 100 | – | –
